{
  "source": "paper PMC11291853",
  "about": "“Haemodynamic, hormonal and renal actions of osteocrin in normal sheep” (Experimental Physiology, 2024)",
  "assay_type_in_all_cases": "in vivo",
  "key": {"normal conscious sheep [1]": {"tested_on": "normal conscious sheep", "test": "Plasma ANP, BNP, CNP and NTproCNP responses to stepped OSTN infusion (RIA)", "conditions": "for Plasma ANP / Plasma BNP / Plasma CNP: sheep n = 8, mean ± SD", "experimental": "(§1) Sheep received I.V. infusions of increasing doses of ovine proOSTN (83–133), the putative 51 aa circulating peptide (at 2.5, 25 and 250 pmol/kg/min for 1 h each; Mimotopes, Melbourne, Victoria, Australia) and a vehicle control (0.9% saline) administered on separate days, ≥1 day apart, in a balanced random order.\n(§2) Venous blood samples were obtained at 30 min and immediately preceding commencement of the first infusion (baseline) and at 30 min intervals for the duration of the study day. Samples were taken into tubes on ice, centrifuged at 4°C and stored at −20°C before assaying. Following extraction over C18 SepPac cartridges (Waters Corp., Milford, MA, USA), plasma concentrations of cGMP (Charles et al., [1990]), ANP (Charles et al., [1990]), BNP (Pemberton et al., [1997]), CNP (Charles et al., [1995]) and N‐terminal proCNP (NTproCNP) (Wilson et al., [2015]), were measured by radioimmunoassay (RIA) as previously described. Non‐extracted plasma renin activity (PRA) (Dunn & Espiner, [1976]) and aldosterone (Lun et al., [1983]) were measured as previously described. Cyclic AMP was measured by enzyme‐linked immunosorbent assay (catalogue no. ADI‐900‐163; Enzo Life Sciences, Farmingdale, NY, USA). For each analyte, all samples from individual animals were measured in the same assay to avoid interassay variability. Haematocrit concentrations were measured with every blood sample taken."}, "normal conscious sheep [2]": {"tested_on": "normal conscious sheep", "test": "Plasma cGMP (RIA) and cAMP (ELISA) responses to stepped OSTN infusion", "conditions": "sheep n = 8, mean ± SD", "experimental": "as §1, §2"}, "normal conscious sheep [3]": {"tested_on": "normal conscious sheep", "test": "Plasma sodium, potassium and creatinine during stepped OSTN infusion", "conditions": "sheep n = 8, mean ± SD", "experimental": "as §1\n(§3) Blood samples for analysis of plasma sodium, potassium and creatinine concentrations were taken immediately before the first dose (baseline), then hourly throughout the study. Urine volume and samples for the measurement of urine cGMP, urine cAMP, sodium, potassium and creatinine excretion were collected hourly throughout the study protocol. To estimate the contribution of renal tissues to urine cGMP/cAMP excretion, nephrogenous cGMP/cAMP was calculated using the formula [urine cG(A)MP − (glomerular filtration rate × plasma cG(A)MP/urine volume × min] (Hirata et al., [1990])."}, "normal conscious sheep [4]": {"tested_on": "normal conscious sheep", "test": "Renal responses (hourly urine collections, nephrogenous cGMP/cAMP) to stepped OSTN infusion", "conditions": "for Urine cAMP / Urine creatinine / Urine potassium: hourly urine collection, sheep n = 8, mean ± SD", "experimental": "Eight Coopworth ewes (4–6 years; 42–60 kg; Lincoln University Farm, New Zealand) were instrumented under general anaesthesia (induced by 0.5 mg/kg diazepam I.V. and 4 mg/kg ketamine I.V. and maintained with a mixture of isoflurane and oxygen) and using approved peri‐ and postoperative antibiotics (20 mg/kg cephazolin I.V.; 6.6–20 mg/kg oxytetracycline I.V.) and analgesia (4 mg/kg carprofen I.V.). Sheep were instrumented via a 50‐mm‐long neck incision, allowing cannulation of the left carotid artery (16 gauge Angiocath; Becton Dickinson, Sandy, UT, USA) for direct measurement of mean arterial pressure (MAP) and heart rate (HR). A polyethylene catheter was placed in the left jugular vein for blood sampling and recording of central venous pressure (CVP). A Swan–Ganz thermodilution catheter (Edwards Life Sciences, Irvine, CA, USA) was placed in the pulmonary artery via the jugular vein for the measurement of cardiac output (CO). The urinary bladder was catheterized per urethra for timed urine collections (Charles, Espiner, Nicholls et al., [1996]). Animals recovered for ≥5 days before commencing the study protocol.\nas §1, §3"}, "[5]": {"conditions": "end of 60 min OSTN infusion 2.5 pmol/kg/min"}, "[6]": {"conditions": "end of 60 min OSTN infusion 25 pmol/kg/min"}, "[7]": {"conditions": "end of 60 min OSTN infusion 250 pmol/kg/min"}, "[8]": {"conditions": "1 h, end of OSTN 2.5 pmol/kg/min I.V."}, "[9]": {"conditions": "2 h, end of OSTN 25 pmol/kg/min I.V."}, "[10]": {"conditions": "3 h, end of OSTN 250 pmol/kg/min I.V."}, "[11]": {"conditions": "4 h, 1 h after end of infusions"}, "[12]": {"conditions": "5 h, 2 h after end of infusions"}},
  "note": "“And” between values parts separate entries of the source, which are not always exact repeats. Equal values may be shown once. Where no end group is shown, it is not given here.",
  "data": [
    {"sequence": "SFSGFGSPLDRLSAGSVSHKGKQRKVVDHPKRRFGIPMDRIGRNRLSNSRG [OSTN]", "values": [
      {"measurement": "Plasma ANP", "setting": "normal conscious sheep [1]; [5]", "value": "24.3 ± 10.1 pmol/L and 24 pmol/L"},
      {"measurement": "Plasma BNP", "setting": "normal conscious sheep [1]; [5]", "value": "2.0 ± 0.5", "unit": "pmol/L"},
      {"measurement": "Plasma CNP", "setting": "normal conscious sheep [1]; [5]", "value": "1.21 ± 0.30 pmol/L and 1.2 pmol/L"},
      {"measurement": "Plasma ANP", "setting": "normal conscious sheep [1]; [6]", "value": "27.6 ± 10.2", "unit": "pmol/L"},
      {"measurement": "Plasma BNP", "setting": "normal conscious sheep [1]; [6]", "value": "3.1 ± 0.9", "unit": "pmol/L"},
      {"measurement": "Plasma CNP", "setting": "normal conscious sheep [1]; [6]", "value": "2.13 ± 0.50", "unit": "pmol/L"},
      {"measurement": "Plasma ANP", "setting": "normal conscious sheep [1]; [7]", "value": "33.0 ± 14.2", "unit": "pmol/L"},
      {"measurement": "Plasma BNP", "setting": "normal conscious sheep [1]; [7]", "value": "3.9 ± 2.3", "unit": "pmol/L"},
      {"measurement": "Plasma CNP", "setting": "normal conscious sheep [1]; [7]", "value": "3.81 ± 1.30", "unit": "pmol/L"},
      {"measurement": "Plasma NTproCNP", "setting": "normal conscious sheep [1]; stepped OSTN infusions 2.5, 25, 250 pmol/kg/min vs vehicle, P = 0.064", "value": "no significant effect"},
      {"measurement": "Plasma cAMP", "setting": "normal conscious sheep [2]; [8]", "value": "11.5 ± 4.8", "unit": "pmol/L"},
      {"measurement": "Plasma cAMP", "setting": "normal conscious sheep [2]; [9]", "value": "11.6 ± 3.0", "unit": "pmol/L"},
      {"measurement": "Plasma cAMP", "setting": "normal conscious sheep [2]; [10]", "value": "12.9 ± 6.5", "unit": "pmol/L"},
      {"measurement": "Plasma cAMP", "setting": "normal conscious sheep [2]; [11]", "value": "10.4 ± 7.1", "unit": "pmol/L"},
      {"measurement": "Plasma cAMP", "setting": "normal conscious sheep [2]; [12]", "value": "10.7 ± 6.1", "unit": "pmol/L"},
      {"measurement": "Plasma cGMP", "setting": "normal conscious sheep [2]; [5]", "value": "11.2 ± 5.1", "unit": "nmol/L"},
      {"measurement": "Plasma cGMP", "setting": "normal conscious sheep [2]; [6]", "value": "19.0 ± 11.0", "unit": "nmol/L"},
      {"measurement": "Plasma cGMP", "setting": "normal conscious sheep [2]; [7]", "value": "23.1 ± 9.7", "unit": "nmol/L"},
      {"measurement": "Plasma creatinine", "setting": "normal conscious sheep [3]; [8]", "value": "76.6 ± 7.5", "unit": "µmol/L"},
      {"measurement": "Plasma potassium", "setting": "normal conscious sheep [3]; [8]", "value": "3.8 ± 0.3", "unit": "mmol/L"},
      {"measurement": "Plasma sodium", "setting": "normal conscious sheep [3]; [8]", "value": "147.0 ± 2.6", "unit": "mmol/L"},
      {"measurement": "Plasma creatinine", "setting": "normal conscious sheep [3]; [9]", "value": "75.6 ± 6.9", "unit": "µmol/L"},
      {"measurement": "Plasma potassium", "setting": "normal conscious sheep [3]; [9]", "value": "4.0 ± 0.5", "unit": "mmol/L"},
      {"measurement": "Plasma sodium", "setting": "normal conscious sheep [3]; [9]", "value": "147.0 ± 2.5", "unit": "mmol/L"},
      {"measurement": "Plasma creatinine", "setting": "normal conscious sheep [3]; [10]", "value": "76.4 ± 8.5", "unit": "µmol/L"},
      {"measurement": "Plasma potassium", "setting": "normal conscious sheep [3]; [10]", "value": "4.0 ± 0.5", "unit": "mmol/L"},
      {"measurement": "Plasma sodium", "setting": "normal conscious sheep [3]; [10]", "value": "146.9 ± 2.4", "unit": "mmol/L"},
      {"measurement": "Plasma creatinine", "setting": "normal conscious sheep [3]; [11]", "value": "75.6 ± 8.9", "unit": "µmol/L"},
      {"measurement": "Plasma potassium", "setting": "normal conscious sheep [3]; [11]", "value": "4.1 ± 0.6", "unit": "mmol/L"},
      {"measurement": "Plasma sodium", "setting": "normal conscious sheep [3]; [11]", "value": "147.1 ± 2.2", "unit": "mmol/L"},
      {"measurement": "Plasma creatinine", "setting": "normal conscious sheep [3]; [12]", "value": "74.6 ± 8.5", "unit": "µmol/L"},
      {"measurement": "Plasma potassium", "setting": "normal conscious sheep [3]; [12]", "value": "4.3 ± 0.6", "unit": "mmol/L"},
      {"measurement": "Plasma sodium", "setting": "normal conscious sheep [3]; [12]", "value": "146.5 ± 2.1", "unit": "mmol/L"},
      {"measurement": "Urine cAMP", "setting": "normal conscious sheep [4]; 1 h, OSTN 2.5 pmol/kg/min I.V.", "value": "674 ± 367", "unit": "pmol/h"},
      {"measurement": "Urine creatinine", "setting": "normal conscious sheep [4]; 1 h, OSTN 2.5 pmol/kg/min I.V.", "value": "0.635 ± 0.100", "unit": "mmol/h"},
      {"measurement": "Urine potassium", "setting": "normal conscious sheep [4]; 1 h, OSTN 2.5 pmol/kg/min I.V.", "value": "15.6 ± 3.5", "unit": "mmol/h"},
      {"measurement": "Urine cAMP", "setting": "normal conscious sheep [4]; 2 h, OSTN 25 pmol/kg/min I.V.", "value": "699 ± 322", "unit": "pmol/h"},
      {"measurement": "Urine creatinine", "setting": "normal conscious sheep [4]; 2 h, OSTN 25 pmol/kg/min I.V.", "value": "0.593 ± 0.100", "unit": "mmol/h"},
      {"measurement": "Urine potassium", "setting": "normal conscious sheep [4]; 2 h, OSTN 25 pmol/kg/min I.V.", "value": "12.7 ± 4.9", "unit": "mmol/h"},
      {"measurement": "Urine cAMP", "setting": "normal conscious sheep [4]; 3 h, OSTN 250 pmol/kg/min I.V.", "value": "549 ± 211", "unit": "pmol/h"},
      {"measurement": "Urine creatinine", "setting": "normal conscious sheep [4]; 3 h, OSTN 250 pmol/kg/min I.V.", "value": "0.586 ± 0.200", "unit": "mmol/h"},
      {"measurement": "Urine potassium", "setting": "normal conscious sheep [4]; 3 h, OSTN 250 pmol/kg/min I.V.", "value": "9.9 ± 3.6", "unit": "mmol/h"},
      {"measurement": "Urine cAMP", "setting": "normal conscious sheep [4]; [11]", "value": "452 ± 219", "unit": "pmol/h"},
      {"measurement": "Urine creatinine", "setting": "normal conscious sheep [4]; [11]", "value": "0.533 ± 0.200", "unit": "mmol/h"},
      {"measurement": "Urine potassium", "setting": "normal conscious sheep [4]; [11]", "value": "7.9 ± 3.4", "unit": "mmol/h"},
      {"measurement": "Urine cAMP", "setting": "normal conscious sheep [4]; [12]", "value": "891 ± 1136", "unit": "pmol/h"},
      {"measurement": "Urine creatinine", "setting": "normal conscious sheep [4]; [12]", "value": "0.542 ± 0.100", "unit": "mmol/h"},
      {"measurement": "Urine potassium", "setting": "normal conscious sheep [4]; [12]", "value": "7.4 ± 3.6", "unit": "mmol/h"},
      {"measurement": "Urine sodium excretion (natriuresis)", "setting": "normal conscious sheep [4]; stepped OSTN infusions vs vehicle, P = 0.226", "value": "did not increase"},
      {"measurement": "Urinary rate (diuresis)", "setting": "normal conscious sheep [4]; stepped OSTN infusions vs vehicle, P = 0.467", "value": "did not increase"},
      {"measurement": "Urinary cGMP excretion", "setting": "normal conscious sheep [4]; stepped OSTN infusions vs vehicle, dose-dependent, P = 0.002", "value": "increased"}
    ]}
  ]
}
